# Experimental data from patent publication US11840686B2, “Modulation of prekallikrein (PKK) expression” (Ionis Pharmaceuticals, Inc., priority 2013, dated 2023).
# Strand notation (5' to 3'): a small letter for the sugar, then the base; units joined by * are phosphorothioate-linked, units joined directly phosphodiester-linked; [ ] holds rarer units or linkages, { } end groups; capitals alone tell only the bases. e = 2'-O-(2-methoxyethyl) (MOE); [5mC] = 5-methylcytosine; d = 2'-deoxy (DNA)
# System: human PKK mRNA
# Assay: Antisense inhibition of human PKK mRNA in HepaRG cells, 3,000 nM (Example 1)
# Type: cell-based
# Settings: relative to untreated control cells
# How it was run: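 Values give percent PKK mRNA reduction relative to untreated controls, normalised to RIBOGREEN total RNA. mRNA was quantified by real-time PCR (RTS3454) about 24 h after electroporation. Each 20-mer MOE gapmer was delivered at 3,000 nM into 20,000 HepaRG cells per well.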
# [1] = Table 4, HepaRG cells, electroporation with 3,000 nM antisense oligonucleotide, approx. 24 hours, PKK mRNA by RT-PCR (RTS3454)
# [2] = Table 2, PKK mRNA, HepaRG cells, 3,000 nM, electroporation, ~24 h
# [3] = Table 3, HepaRG cells, electroporation with 3,000 nM antisense oligonucleotide, approx. 24 hours, PKK mRNA by RT-PCR (RTS3454)
# [4] = Table 1, PKK mRNA, HepaRG cells, 3,000 nM, electroporation, ~24 h
substance,measurement,setting,value
531171 (antisense eA*eG*eG*e[5mC]*e[5mC]*dT*dG*d[5mC]*d[5mC]*dA*d[5mC]*dA*dG*dG*d[5mC]*e[5mC]*eA*eG*eA*e[5mC]) [compound 531171],% inhibition,[1],40%
531176 (antisense eT*eT*eA*eT*eG*dA*dA*dA*d[5mC]*d[5mC]*dT*d[5mC]*dT*dT*dG*eA*eT*eT*eT*eG) [compound 531176],% inhibition,[1],0%
531030 (antisense eA*eA*eT*eT*e[5mC]*dA*dG*dT*dG*dT*dA*dA*dT*dT*d[5mC]*eA*eA*eA*eG*eG) [compound 531030],% inhibition,[2],24%
531165 (antisense eG*eT*eA*eA*eT*dA*dA*dA*dA*dG*dG*dA*dA*dT*dG*eA*eT*eA*eA*eA) [compound 531165],% inhibition,[1],0%
531074 (e[5mC]*eT*eT*eT*eG*d[5mC]*dA*dG*dA*dT*dG*dA*dG*dG*dA*e[5mC]*e[5mC]*e[5mC]*e[5mC]*e[5mC]; antisense) [compound 531074],% inhibition,[2],67%
531109 (antisense eA*eG*e[5mC]*e[5mC]*e[5mC]*dA*dA*dG*dG*dA*dA*d[5mC]*dA*dT*d[5mC]*eT*e[5mC]*eA*e[5mC]*e[5mC]) [compound 531109],% inhibition,[3],52%
482586 (antisense eA*e[5mC]*e[5mC]*e[5mC]*eA*dA*d[5mC]*dA*dG*dT*dT*dG*dG*dT*dA*eT*eA*eA*eA*eT) [compound 482586],% inhibition,[2],0%
531187 (eA*eT*e[5mC]*eT*eA*dT*dT*dG*dG*dT*dT*d[5mC]*dA*dG*dG*eA*eG*e[5mC]*e[5mC]*eA; antisense) [compound 531187],% inhibition,[1],72%
530941 (antisense eA*eA*e[5mC]*eT*eG*dT*dA*dG*d[5mC]*dA*dA*dA*d[5mC]*dA*dA*eG*eG*eA*eA*eA) [compound 530941],% inhibition,[4],22%
530999 (e[5mC]*eA*eG*eT*e[5mC]*dT*dT*d[5mC]*dT*dG*dG*dG*dA*dG*dT*eA*eA*eA*eG*eA; antisense) [compound 530999],% inhibition,[4],31%
531115 (antisense eT*e[5mC]*e[5mC]*eT*eA*dA*dA*dT*dA*dG*dG*dA*dA*d[5mC]*dA*eA*eA*eG*eT*eA) [compound 531115],% inhibition,[3],0%
531188 (eG*eT*eT*eA*eA*dA*dA*d[5mC]*dA*dA*d[5mC]*dT*dA*dG*dA*eA*eG*e[5mC]*e[5mC]*eA; antisense) [compound 531188],% inhibition,[1],67%
531201 (eT*eT*eT*e[5mC]*e[5mC]*dA*dA*dT*dA*d[5mC]*dT*dT*dT*dT*dA*e[5mC]*eA*eA*eA*eT; antisense) [compound 531201],% inhibition,[1],52%
530996 (eT*eG*eA*e[5mC]*eA*dG*d[5mC]*dG*dA*dA*dT*d[5mC]*dA*dT*d[5mC]*eT*eT*eT*eG*eT; antisense) [compound 530996],% inhibition,[4],51%
530997 (eA*eA*eA*eA*e[5mC]*dT*dG*dA*d[5mC]*dA*dG*d[5mC]*dG*dA*dA*eT*e[5mC]*eA*eT*e[5mC]; antisense) [compound 530997],% inhibition,[4],39%
531202 (eA*eT*eT*eA*eA*dT*dA*dA*dG*d[5mC]*dA*dT*d[5mC]*dT*d[5mC]*eT*e[5mC]*eT*eG*eA; antisense) [compound 531202],% inhibition,[1],31%
531212 (eA*e[5mC]*eA*eT*e[5mC]*dA*dG*dT*dA*dG*d[5mC]*dT*dT*d[5mC]*dA*eG*eA*eT*eG*eT; antisense) [compound 531212],% inhibition,[1],56%
531155 (antisense e[5mC]*eT*eT*e[5mC]*eT*dT*dG*dT*d[5mC]*dT*d[5mC]*dA*dG*dA*dT*eT*eA*e[5mC]*e[5mC]*eA) [compound 531155],% inhibition,[3],79%
531098 (eT*eT*eA*eT*eT*dA*dG*dT*d[5mC]*dA*dA*dA*dT*d[5mC]*dA*e[5mC]*e[5mC]*e[5mC]*eA*eA; antisense) [compound 531098],% inhibition,[3],19%
531119 (antisense eT*eA*eA*eA*e[5mC]*dT*d[5mC]*dT*dT*dA*d[5mC]*dA*dT*dT*dT*eA*eT*eA*eG*eA) [compound 531119],% inhibition,[3],0%
531016 (eT*eG*eT*e[5mC]*e[5mC]*dT*dA*dT*dG*dA*dG*dT*dG*dA*d[5mC]*e[5mC]*e[5mC]*eT*e[5mC]*e[5mC]; antisense) [compound 531016],% inhibition,[2],39%
531134 (antisense eT*eT*eA*e[5mC]*e[5mC]*d[5mC]*dA*dT*d[5mC]*dA*dA*dA*dG*d[5mC]*dA*eG*eT*eG*eG*eG) [compound 531134],% inhibition,[3],6%
531142 (antisense eT*eG*eT*eT*eT*dA*dA*dA*dA*dT*dA*dT*d[5mC]*dT*d[5mC]*eT*eA*eT*eA*e[5mC]) [compound 531142],% inhibition,[3],8%
531091 (eT*e[5mC]*eA*eG*e[5mC]*d[5mC]*d[5mC]*dA*dA*dT*dG*dT*d[5mC]*d[5mC]*dT*eA*eA*e[5mC]*e[5mC]*eT; antisense) [compound 531091],% inhibition,[3],35%
530981 (antisense eT*eT*e[5mC]*eT*eT*dT*dT*dG*d[5mC]*dA*dG*dG*dT*dT*dA*eA*eA*eA*eG*eG) [compound 530981],% inhibition,[4],0%
531012 (eT*e[5mC]*eT*e[5mC]*e[5mC]*d[5mC]*d[5mC]*dA*dA*dG*dA*dA*dG*dA*dG*eT*eT*eT*eG*eT; antisense) [compound 531012],% inhibition,[2],48%
531125 (antisense eA*e[5mC]*eT*e[5mC]*eG*d[5mC]*d[5mC]*dT*dT*dT*dG*dT*dG*dA*d[5mC]*eT*e[5mC]*eG*eA*eT) [compound 531125],% inhibition,[3],23%
531001 (eA*eG*eA*eT*eA*dA*dT*d[5mC]*dT*dT*dA*dA*dG*dA*dA*eA*e[5mC]*eA*e[5mC]*eT; antisense) [compound 531001],% inhibition,[4],44%
531103 (eA*e[5mC]*eT*e[5mC]*eA*dT*dT*dG*d[5mC]*d[5mC]*dT*dT*dA*dA*d[5mC]*eT*e[5mC]*eA*eG*eG; antisense) [compound 531103],% inhibition,[3],40%
531179 (antisense eG*eA*eT*eT*eG*dG*dA*d[5mC]*d[5mC]*d[5mC]*dA*dG*dA*d[5mC]*dA*e[5mC]*eT*eA*eT*eA) [compound 531179],% inhibition,[1],57%
531122 (antisense eT*eA*eA*e[5mC]*eA*dA*dA*dA*dA*dT*dG*d[5mC]*d[5mC]*dT*dT*eG*eT*eG*e[5mC]*e[5mC]) [compound 531122],% inhibition,[3],33%
531008 (eT*eG*e[5mC]*eT*eG*dG*dA*dA*dG*dA*dT*dG*dT*dT*d[5mC]*eA*eT*eG*eT*eG; antisense) [compound 531008],% inhibition,[2],51%
530980 (antisense eT*eT*eG*e[5mC]*eA*dG*dG*dT*dT*dA*dA*dA*dA*dG*dG*e[5mC]*eT*eA*eT*eA) [compound 530980],% inhibition,[4],29%
531093 (eT*eT*e[5mC]*eT*e[5mC]*d[5mC]*dT*dG*dG*d[5mC]*dT*d[5mC]*dA*dG*dA*eA*eG*e[5mC]*eT*e[5mC]; antisense) [compound 531093],% inhibition,[3],60%
531166 (antisense eA*eG*eA*e[5mC]*eA*dG*dT*dA*dA*dA*d[5mC]*dA*dA*dA*dA*eT*e[5mC]*eA*eG*eG) [compound 531166],% inhibition,[1],12%
531070 (e[5mC]*eT*eG*eT*eG*dT*dT*dT*dT*d[5mC]*dT*d[5mC]*dT*dA*dA*eA*eA*eT*e[5mC]*e[5mC]; antisense) [compound 531070],% inhibition,[2],68%
531033 (antisense eA*eT*eT*eG*eG*dT*dT*dT*dT*dT*dG*dG*dA*dA*dT*eT*e[5mC]*eA*eG*eT) [compound 531033],% inhibition,[2],53%
531047 (antisense eA*eT*e[5mC]*eT*eT*dG*dA*dT*dA*dT*d[5mC]*dT*dT*dT*dT*e[5mC]*eT*eG*eG*e[5mC]) [compound 531047],% inhibition,[2],68%
531040 (antisense eT*e[5mC]*e[5mC]*eT*eT*d[5mC]*dG*dA*dG*dA*dA*dG*d[5mC]*d[5mC]*d[5mC]*e[5mC]*eA*eT*e[5mC]*e[5mC]) [compound 531040],% inhibition,[2],27%
531059 (antisense eA*e[5mC]*eA*eT*eT*d[5mC]*d[5mC]*dA*dT*dT*dG*dT*dG*dT*dT*eT*eG*e[5mC]*eA*eA) [compound 531059],% inhibition,[2],55%
530948 (antisense eA*e[5mC]*eA*eT*eG*dG*dA*dA*dG*d[5mC]*dT*dA*d[5mC]*dA*dT*e[5mC]*e[5mC]*e[5mC]*e[5mC]*eA) [compound 530948],% inhibition,[4],35%
530932 (antisense eT*eG*eT*e[5mC]*eA*d[5mC]*dT*dT*dA*dA*dA*dA*dA*dT*dG*eA*eA*e[5mC]*eG*eG) [compound 530932],% inhibition,[4],52%
530934 (antisense e[5mC]*eT*eT*e[5mC]*eT*dT*dG*dG*dA*dG*dG*dT*dG*dA*dG*eT*e[5mC]*eT*e[5mC]*eT) [compound 530934],% inhibition,[4],54%
531011 (e[5mC]*e[5mC]*eA*eA*eG*dA*dA*dG*dA*dG*dT*dT*dT*dG*dT*eT*e[5mC]*e[5mC]*eT*e[5mC]; antisense) [compound 531011],% inhibition,[2],0%
531007 (eA*eA*e[5mC]*eA*e[5mC]*dA*dA*dT*dT*dG*d[5mC]*dT*dT*d[5mC]*dT*eT*eG*eG*eA*eG; antisense) [compound 531007],% inhibition,[2],51%
